Test results taken from patent US9233964B2, “Sulfamide piperazine derivatives as protein tyrosine kinase inhibitors and pharmaceutical use therof” (LEO PHARMA A/S, priority 2011, dated 2016).
pEC50: −log10 of the molar value.

Columns and labels:
Format in all cases: biochemical
TYK2 = molecular target: T1, TYK2 (Homo sapiens, UniProt P29597); assay: JAK kinase assay (HTRF, phosphorylation of synthetic peptide), TYK2; conditions: catalytic domain, ATP at Km (13 μM); read-out: TYK2 kinase inhibitory activity (EC50)
T1 construct: JAK1 (aa 850-1154) and TYK2 (aa 871-1187) are expressed with an N-terminally fused GST-tag; GST (N); purchased Carna Biosciences, Inc; host or cells: baculovirus expression system
T1 sequence (P29597 871-1187): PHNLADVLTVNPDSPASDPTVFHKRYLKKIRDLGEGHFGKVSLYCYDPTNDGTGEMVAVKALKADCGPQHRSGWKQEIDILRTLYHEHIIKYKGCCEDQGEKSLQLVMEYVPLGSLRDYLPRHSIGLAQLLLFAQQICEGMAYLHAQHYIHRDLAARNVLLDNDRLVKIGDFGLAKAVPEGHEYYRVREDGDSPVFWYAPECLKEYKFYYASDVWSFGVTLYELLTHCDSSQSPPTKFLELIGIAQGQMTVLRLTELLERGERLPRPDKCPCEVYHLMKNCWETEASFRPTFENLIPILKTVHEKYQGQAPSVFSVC
Method in brief: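 1 µM biotinylated TK peptide at Km ATP in pH 7.0 Hepes, 20-30 min RT. EDTA stop; overnight streptavidin-XL665/cryptate HTRF read.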

JAK3 = molecular target: T2, JAK3 (Homo sapiens, UniProt P52333); assay: JAK kinase assay (HTRF, phosphorylation of synthetic peptide), JAK3; conditions: catalytic domain, ATP at Km (2 μM); read-out: JAK3 kinase inhibitory activity (EC50)
T2 construct: All four purified enzymes contain only the catalytic domain; His (N); purchased Carna Biosciences, Inc; host or cells: baculovirus expression system

JAK2 = molecular target: T3, JAK2 (Homo sapiens, UniProt O60674); assay: JAK kinase assay (HTRF, phosphorylation of synthetic peptide), JAK2; conditions: catalytic domain, ATP at Km (4 μM); read-out: JAK2 kinase inhibitory activity (EC50)
T3 construct: All four purified enzymes contain only the catalytic domain; His (N); purchased Carna Biosciences, Inc; host or cells: baculovirus expression system
Method in brief: (§1)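 Catalytic-domain human JAK1 (GST-tagged, aa 850-1154) or His-tagged JAK2, baculovirus-expressed, phosphorylated 1 µM biotinylated TK peptide at Km ATP (JAK1 7 µM, 10 mM MgCl2, 50 nM SEB; JAK2 4 µM, 5 mM MgCl2) in pH 7.0 Hepes, 20-30 min RT. EDTA stop; overnight streptavidin-XL665/cryptate HTRF read.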

JAK1 = molecular target: T4, JAK1 (Homo sapiens, UniProt P23458); assay: JAK kinase assay (HTRF, phosphorylation of synthetic peptide), JAK1; conditions: catalytic domain, ATP at Km (7 μM); read-out: JAK1 kinase inhibitory activity (EC50)
T4 construct: JAK1 (aa 850-1154) and TYK2 (aa 871-1187) are expressed with an N-terminally fused GST-tag; GST (N); purchased Carna Biosciences, Inc; host or cells: baculovirus expression system
Method in brief: as §1

T3 sequence (O60674 849-1124 limits assumed): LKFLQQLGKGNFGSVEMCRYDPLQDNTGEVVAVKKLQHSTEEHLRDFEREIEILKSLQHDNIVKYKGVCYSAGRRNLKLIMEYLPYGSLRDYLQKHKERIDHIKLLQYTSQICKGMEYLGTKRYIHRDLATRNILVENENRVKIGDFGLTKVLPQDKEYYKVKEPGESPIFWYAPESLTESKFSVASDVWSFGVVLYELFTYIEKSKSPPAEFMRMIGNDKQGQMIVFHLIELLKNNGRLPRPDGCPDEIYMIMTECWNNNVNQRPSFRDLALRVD
T4 sequence (P23458 850-1154): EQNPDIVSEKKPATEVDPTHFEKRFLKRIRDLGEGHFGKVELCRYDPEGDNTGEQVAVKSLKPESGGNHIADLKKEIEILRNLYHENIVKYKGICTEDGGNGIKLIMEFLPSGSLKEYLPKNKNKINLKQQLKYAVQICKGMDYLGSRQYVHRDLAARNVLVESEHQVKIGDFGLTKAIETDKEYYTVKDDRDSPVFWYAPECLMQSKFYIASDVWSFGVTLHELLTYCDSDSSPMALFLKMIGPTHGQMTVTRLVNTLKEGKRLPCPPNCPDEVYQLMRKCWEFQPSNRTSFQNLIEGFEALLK
T2 sequence (P52333 822-1111 limits assumed): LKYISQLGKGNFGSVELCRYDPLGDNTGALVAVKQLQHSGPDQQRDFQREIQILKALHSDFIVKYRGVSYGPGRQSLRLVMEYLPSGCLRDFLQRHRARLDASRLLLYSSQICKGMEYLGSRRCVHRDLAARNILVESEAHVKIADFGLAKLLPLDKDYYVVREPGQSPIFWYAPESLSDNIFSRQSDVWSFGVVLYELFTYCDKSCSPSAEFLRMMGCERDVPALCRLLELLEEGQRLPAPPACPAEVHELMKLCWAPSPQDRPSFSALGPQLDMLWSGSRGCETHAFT

pEC50 (TYK2)	pEC50 (JAK3)	pEC50 (JAK2)	pEC50 (JAK1)	SMILES
< 6.30	6.30 to 7.00	> 7.00	> 7.00	CN(CCOc1ccccc1C#N)S(=O)(=O)N1CCN(c2ncnc3[nH]ccc23)CC12CC2 [Example 70, N-[2-(2-cyanophenoxy)ethyl]-N-methyl-5-(7H-pyrrolo[2,3-d]pyrimidin-4-yl)-5,8-diazaspiro[2.5]octane-8-sulfonamide]
6.30 to 7.00	> 7.00	> 7.00	> 7.00	CN(CCc1ccccc1)S(=O)(=O)N1CCN(c2ncnc3[nH]ccc23)CC12CC2 [Example 58, 7-(7H-Pyrrolo[2,3-d]pyrimidin-4-yl)-4,7-diaza-spiro[2.5]octane-4-sulfonic acid methyl-phenethyl-amide]
< 6.30	6.30 to 7.00	> 7.00	> 7.00	CC(C)N(CCO)S(=O)(=O)N1CCN(c2ncnc3[nH]ccc23)CC12CC2 [Example 97, N-(2-hydroxyethyl)-N-isopropyl-5-(7H-pyrrolo[2,3-d]pyrimidin-4-yl)-5,8-diazaspiro[2.5]octane-8-sulfonamide]
6.30 to 7.00	> 7.00	> 7.00	> 7.00	N#CCN(CCO)S(=O)(=O)N1CCN(c2ncnc3[nH]ccc23)CC12CC2 [Example 108, N-(cyanomethyl)-N-(2-hydroxyethyl)-5-(7H-pyrrolo[2,3-d]pyrimidin-4-yl)-5,8-diazaspiro[2.5]octane-8-sulfonamide]
6.30 to 7.00	> 7.00	> 7.00	> 7.00	CN(CC1CCCN(C(=O)CCO)C1)S(=O)(=O)N1CCN(c2ncnc3[nH]ccc23)CC12CC2 (centres unmarked) [Example 154, N-[[1-(3-hydroxypropanoyl)-3-piperidyl]methyl]-N-methyl-5-(7H-pyrrolo[2,3-d]pyrimidin-4-yl)-5,8-diazaspiro[2.5]octane-8-sulfonamide]
> 7.00	> 7.00	> 7.00	> 7.00	O=S(=O)(N(CCO)CCc1ccccc1)N1CCN(c2ncnc3[nH]ccc23)CC12CC2 [Example 25, 7-(7H-Pyrrolo[2,3-d]pyrimidin-4-yl)-4,7-diaza-spiro[2.5]octane-4-sulfonic acid (2-hydroxy-ethyl)-phenethyl-amide]
< 6.30	> 7.00	> 7.00	> 7.00	CC(C)(C)OC(=O)NS(=O)(=O)N1CCN(c2ncnc3[nH]ccc23)CC12CC2 [Int 53]
6.30 to 7.00	6.30 to 7.00	> 7.00	> 7.00	O=S(=O)(NC[C@@H]1CCCN1Cc1ccccc1)N1CCN(c2ncnc3[nH]ccc23)CC12CC2 [Example 175, N-[[(2S)-1-benzylpyrrolidin-2-yl]methyl]-5-(7H-pyrrolo[2,3-d]pyrimidin-4-yl)-5,8-diazaspiro[2.5]octane-8-sulfonamide]
< 6.30	6.30 to 7.00	> 7.00	> 7.00	CC(C)N(CC#N)S(=O)(=O)N1CCN(c2ncnc3[nH]ccc23)CC12CC2 [Example 96, N-(cyanomethyl)-N-isopropyl-5-(7H-pyrrolo[2,3-d]pyrimidin-4-yl)-5,8-diazaspiro[2.5]octane-8-sulfonamide]
6.30 to 7.00	> 7.00	> 7.00	> 7.00	CN(C[C@H]1CCCN1C(=O)CC#N)S(=O)(=O)N1CCN(c2ncnc3[nH]ccc23)CC12CC2 [Example 189, N-[[(2R)-1-(2-cyanoacetyl)pyrrolidin-2-yl]methyl]-N-methyl-5-(7H-pyrrolo[2,3-d]pyrimidin-4-yl)-5,8-diazaspiro[2.5]octane-8-sulfonamide]
6.30 to 7.00	> 7.00	> 7.00	> 7.00	CN(C[C@H]1CCCN1C=O)S(=O)(=O)N1CCN(c2ncnc3[nH]ccc23)CC12CC2 [Example 188, N-[[(2R)-1-formylpyrrolidin-2-yl]methyl]-N-methyl-5-(7H-pyrrolo[2,3-d]pyrimidin-4-yl)-5,8-diazaspiro[2.5]octane-8-sulfonamide]
6.30 to 7.00	> 7.00	> 7.00	> 7.00	Cc1cc(CN(C)S(=O)(=O)N2CCN(c3ncnc4[nH]ccc34)CC23CC3)on1 [Example 67, N-methyl-N-[(3-methylisoxazol-5-yl)methyl]-5-(7H-pyrrolo[2,3-d]pyrimidin-4-yl)-5,8-diazaspiro[2.5]octane-8-sulfonamide]
< 6.30	6.30 to 7.00	> 7.00	> 7.00	CN(C(=O)CCC1CCS(=O)(=O)C1)S(=O)(=O)N1CCN(c2ncnc3[nH]ccc23)CC12CC2 (centres unmarked) [Example 137, 3-(1,1-dioxothiolan-3-yl)-N-methyl-N-[[5-(7H-pyrrolo[2,3-d]pyrimidin-4-yl)-5,8-diazaspiro[2.5]octan-8-yl]sulfonyl]propanamide]
6.30 to 7.00	> 7.00	> 7.00	> 7.00	CC(CN(C)S(=O)(=O)N1CCN(c2ncnc3[nH]ccc23)CC12CC2)c1ccccc1 (centres unmarked) [Example 63, N-methyl-N-(2-phenylpropyl)-5-(7H-pyrrolo[2,3-d]pyrimidin-4-yl)-5,8-diazaspiro[2.5]octane-8-sulfonamide]
< 6.30	6.30 to 7.00	> 7.00	> 7.00	CN(CC1CCN(C(=O)CCC#N)C1)S(=O)(=O)N1CCN(c2ncnc3[nH]ccc23)CC12CC2 (centres unmarked) [Example 126, N-[[1-(3-cyanopropanoyl)pyrrolidin-3-yl]methyl]-N-methyl-5-(7H-pyrrolo[2,3-d]pyrimidin-4-yl)-5,8-diazaspiro[2.5]octane-8-sulfonamide]
> 7.00	> 7.00	> 7.00	> 7.00	CN(CCC1CC1)S(=O)(=O)N1CCN(c2ncnc3[nH]ccc23)CC12CC2 [Example 82, N-(2-cyclopropylethyl)-N-methyl-5-(7H-pyrrolo[2,3-d]pyrimidin-4-yl)-5,8-diazaspiro[2.5]octane-8-sulfonamide]
< 6.30	6.30 to 7.00	> 7.00	6.30 to 7.00	O=S(=O)(N(CCO)CCOc1ccccc1)N1CCN(c2ncnc3[nH]ccc23)CC12CC2 [Example 111, N-(2-hydroxyethyl)-N-(2-phenoxyethyl)-5-(7H-pyrrolo[2,3-d]pyrimidin-4-yl)-5,8-diazaspiro[2.5]octane-8-sulfonamide]
6.30 to 7.00	6.30 to 7.00	> 7.00	> 7.00	CN(C(=O)C1CCCC1)S(=O)(=O)N1CCN(c2ncnc3[nH]ccc23)CC12CC2 [Example 132, N-methyl-N-[[5-(7H-pyrrolo[2,3-d]pyrimidin-4-yl)-5,8-diazaspiro[2.5]octan-8-yl]sulfonyl]cyclopentanecarboxamide]
6.30 to 7.00	6.30 to 7.00	> 7.00	> 7.00	CN(CC1CC(=O)C1)S(=O)(=O)N1CCN(c2ncnc3[nH]ccc23)CC12CC2 [Example 88, N-methyl-N-[(3-oxocyclobutyl)methyl]-5-(7H-pyrrolo[2,3-d]pyrimidin-4-yl)-5,8-diazaspiro[2.5]octane-8-sulfonamide]
< 6.30	6.30 to 7.00	> 7.00	> 7.00	CCCN(CCc1ccccc1)S(=O)(=O)N1CCN(c2ncnc3[nH]ccc23)CC12CC2 [Example 7, 7-(7H-Pyrrolo[2,3-d]pyrimidin-4-yl)-4,7-diaza-spiro[2.5]octane-4-sulfonic acid phenethyl-propyl-amide]
> 7.00	> 7.00	> 7.00	> 7.00	CN(CC1CC1)S(=O)(=O)N1CCN(c2ncnc3[nH]ccc23)CC12CC2 [Example 59, N-(cyclopropylmethyl)-N-methyl-5-(7H-pyrrolo[2,3-d]pyrimidin-4-yl)-5,8-diazaspiro[2.5]octane-8-sulfonamide]
6.30 to 7.00	> 7.00	> 7.00	> 7.00	N#CCN(CC#N)S(=O)(=O)N1CCN(c2ncnc3[nH]ccc23)CC12CC2 [Example 145, N,N-bis(cyanomethyl)-5-(7H-pyrrolo[2,3-d]pyrimidin-4-yl)-5,8-diazaspiro[2.5]octane-8-sulfonamide]
< 6.30	6.30 to 7.00	> 7.00	> 7.00	O=S(=O)(N(CCc1ccccc1)CC1CC1)N1CCN(c2ncnc3[nH]ccc23)CC12CC2 [Example 2, 7-(7H-Pyrrolo[2,3-d]pyrimidin-4-yl)-4,7-diaza-spiro[2.5]octane-4-sulfonic acid cyclopropylmethyl-phenethyl-amide]
